A short description of this data set: Solubility tests of monomer 1 with auxiliary surfactants (additives) in the monomer solution. The class given is physicochemical. The following applies: recipe 27 mol % sodium acrylate, 72.9 mol % acrylamide, 0.1 mol % 1; for Result (solubility of monomer 1 with additive): additive 2-20 eq relative to 1. The source says: In order to solubilize monomer 1 the monomer was first dissolved in ethanol and then added to the monomer solution.
These tests were done in first instance with 0.1 mol % of 1.

Each structure is given as a SMILES string.

Turning to `CCCCCCCCCCCCCCC(O)C[N+](C)(C)CCO.[Cl-]` (stereo not shown) [Dehyquart E-CA, (2-hydroxyethyl)(2-hydroxyhexadecyl)dimethylammonium chloride], the “Result (solubility of monomer 1 with additive)” value is “Not soluble**”.

Turning to `C=C(C)C(=O)OCCC[N+](C)(C)CCCCCCCCCCCC` [Monomer 1], the “Result (solubility of monomer 1 without additive)” value (no additive) is reported as “Not soluble**”.

For the compound `CCCCCCCCCCCCCC[N+](C)(C)C.[Br-]` [Monomer C14TAB, Tetradecyltrimethylammonium bromide, reference compound], the “Result (solubility of monomer 1 with additive)” value is listed as “Not soluble**”.

With `CCCCCCCCCCCCN(CCC(=O)[O-])CCC(=O)O.[Na+]` [Deriphat 160 C, Sodium-N-lauryl-R-iminodipropionate], the “Result (solubility of monomer 1 with additive)” value is given as “Not soluble**”.

The values above are taken from patent US11649396B2, “Associative copolymers with hydrophobic quaternized (meth)acrylamide and (meth)acrylic acid derivatives” (BASF SE, priority 2018, dated 2023).
